How the values were obtained:
[1] = tested on: patients with diabetic macular edema; assay: Change in intraocular pressure from baseline, Compound 1 BID at varying doses, 28 Day EOT (FIG. 1); format: in vivo, human; details: doses greater than 15 mg BID
Protocol: The difference in IOP was determined at the end of the trial, which was 28 days after treatment began (28 Day EOT). Changes in IOP were determined both in the study eye and the fellow eye.

[2] = Intraocular pressure at Baseline and Months 1-3, Compound 1 with sham or RBZ, or placebo with RBZ (TABLE 1, FIG. 2); format: in vivo
Protocol: The difference in IOP was determined relative to a pre-treatment baseline (Base) at months 1, 2, and 3 (M1-M3). Intraocular pressure was determined in the study eye in millimeters of mercury (mmHg).
The difference in IOP was determined relative to a pre-treatment Baseline at Months 1, 2, and 3. Intraocular pressure was determined in the study eye/fellow eye in mmHg.

**Q.** With COC(=O)N[C@@H](Cc1ccccc1)C(=O)N[C@@H](Cc1ccc(NS(=O)(=O)O)cc1)c1csc(-c2cccs2)n1 [Compound 1] as the compound, how does the “effect on intraocular pressure (IOP) relative to pre-treatment baseline” value [1] read?
**A.** decreased IOP

**Q.** And the “IOP, fellow eye” value ([2]; Month 1)?
**A.** 14.5 mmHg

**Q.** What about the “IOP, fellow eye” value ([2]; Month 2) of the same compound?
**A.** 14.3 mmHg

**Q.** And the “IOP, fellow eye” value ([2]; Month 3)?
**A.** 14.0 mmHg

**Q.** And the “IOP, fellow eye” value ([2]; pre-treatment Baseline)?
**A.** 15.4 mmHg

**Q.** And the “IOP, study eye” value ([2]; Month 1)?
**A.** 14.8 mmHg

**Q.** And the “IOP, study eye” value ([2]; Month 2)?
**A.** 14.4 mmHg

**Q.** And the “IOP, study eye” value ([2]; Month 3)?
**A.** 14.3 mmHg

**Q.** And the “IOP, study eye” value ([2]; pre-treatment Baseline)?
**A.** 15.8 mmHg

Reference: patent US11413242B2, “Formulations of Tie-2 activators and methods of use thereof” (EyePoint Pharmaceuticals, Inc., priority 2019, dated 2022)
